Data as given in US8222416B2, “Azaindole glucokinase activators” (Hoffmann-La Roche Inc., priority 2009, dated 2012).

Each compound was assayed against T1, Recombinant human liver GK1 (GST-GK) (Homo sapiens, UniProt P35557) (assay: In vitro glucokinase activity assay (G6PDH-coupled, NADH, OD340)). Conditions: at 30 μM.
T1 construct: made in house; host or cells: E. coli
T1 sequence (P35557 1-466 isoform P35557-2): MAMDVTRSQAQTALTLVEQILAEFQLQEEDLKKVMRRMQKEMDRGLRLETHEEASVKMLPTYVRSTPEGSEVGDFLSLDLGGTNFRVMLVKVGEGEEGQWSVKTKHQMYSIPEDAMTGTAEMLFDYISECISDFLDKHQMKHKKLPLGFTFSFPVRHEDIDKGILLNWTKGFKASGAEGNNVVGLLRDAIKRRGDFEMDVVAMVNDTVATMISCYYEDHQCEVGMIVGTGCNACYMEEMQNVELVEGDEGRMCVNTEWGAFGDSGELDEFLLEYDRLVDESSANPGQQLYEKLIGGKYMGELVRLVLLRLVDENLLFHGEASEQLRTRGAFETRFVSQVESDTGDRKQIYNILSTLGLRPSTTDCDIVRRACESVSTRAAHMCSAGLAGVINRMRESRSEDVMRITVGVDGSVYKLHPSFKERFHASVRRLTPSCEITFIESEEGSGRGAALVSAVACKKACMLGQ
Format: biochemical
Method: Glucokinase In Vitro Assay Protocol: Glucokinase (GK) was assayed by coupling the production of glucose-6-phosphate to the generation of NADH with glucose-6-phosphate dehydrogenase (G6PDH, 0.75-1 kunits/mg; Boehringer Mannheim, Indianapolis, Ind.) from Leuconostoc mesenteroides as the coupling enzyme (Scheme 2).
Recombinant human liver GK1 was expressed in E. coli as a glutathione S-transferase fusion protein (GST-GK) [Liang et al, 1995] and was purified by chromatography over a glutathione-Sepharose 4B affinity column using the procedure provided by the manufacturer (Amersham Pharmacia Biotech, Piscataway, N.J.).
The assay was conducted at 30° C. in a flat bottom 96-well tissue culture plate from Costar (Cambridge, Mass.) with a final incubation volume of 120 μL. The incubation reaction contained the following: 25 mM Hepes buffer (pH 7.1), 25 mM KCl, 5 mM D-glucose, 1 mM ATP, 1.8 mM NAD, 2 mM MgCl2, 1 μM sorbitol-6-phosphate, 1 mM dithiothreitol, test drug or 10% dimethylsulfoxide, ˜7 units/ml G6PDH, and GK (see below). All organic reagents were >98% pure and were from Boehringer Mannheim with the exceptions of D-glucose and Hepes which were from Sigma Chemical Co, St Louis, Mo. Test compounds were dissolved in dimethylsulfoxide and were added to the incubation reaction minus GST-GK in a volume of 12 μL to yield a final dimethylsulfoxide concentration of 10%. This mix was pre-incubated in the temperature controlled chamber of a SPECTRAmax 250 microplate spectrophotometer (Molecular Devices Corporation, Sunnyvale, Calif.) for 10 minutes to allow temperature equilibrium and then the reaction was started by the addition of 20 μL GST-GK.
After addition of enzyme, the increase in optical density (OD) at 340 nm was monitored spectrophotometrically to determine the rate of change (OD340 per min). The GK activity (OD340/min) in control wells (10% dimethylsulfoxide minus GK activators) was compared with the activity in wells containing test GK activators, and the concentration of activator that produced a 50% increase in the activity of GK, i.e., the SC1.5, was calculated.

Point of comparison: `CCC(O)(CC)c1ccc(C(CC2CCCC2)c2cc3cccnc3[nH]2)cc1` (stereo not shown) [Example 83, 3-{4-[2-Cyclopentyl-1-(1H-pyrrolo[2,3-b]pyridin-2-yl)-ethyl]-phenyl}-pentan-3-ol], “fold activation of GK” value 1.4 fold at 30. Against it:
- CCS(=O)(=O)c1cnc2[nH]c(C(CC3CCCC3)c3ccc(S(C)(=O)=O)cc3)cc2c1 (stereo not shown) [Example 125, 2-[2-Cyclopentyl-1-(4-methanesulfonyl-phenyl)-ethyl]-5-ethanesulfonyl-1H-pyrrolo[2,3-b]pyridine] — the same, 1.4 fold at 30

Same assay, conditions: concentration of activator that produced a 50% increase in the activity of GK; 5 mM D-glucose, 30° C.

Point of comparison: `CC(C)(O)c1ccc(C(CC2CCCC2)c2cc3cccnc3[nH]2)cc1` (stereo not shown) [Example 81, 2-{4-[2-Cyclopentyl-1-(1H-pyrrolo[2,3-b]pyridin-2-yl)-ethyl]-phenyl}-propan-2-ol], SC1.5 2.3 µM. Against it:
- CS(=O)(=O)c1ccc(C(CC2CCCC2)c2cc3cc(CC#N)cnc3[nH]2)cc1 (stereo not shown) [Example 38, {2-[2-Cyclopentyl-1-(4-methanesulfonyl-phenyl)-ethyl]-1H-pyrrolo[2,3-b]pyridin-5-yl}-acetonitrile] — 4.3-fold higher, 9.8 µM
- CN(C)C(=O)COc1cnc2[nH]c([C@H](CC3CCCC3)c3ccc(S(C)(=O)=O)cc3)cc2c1 (single isomer, unassigned) [Example 14] — 3.1-fold lower, 0.742 µM
- O=S(=O)(CCO)c1ccc(C(CC2CCOCC2)c2cc3cc(F)cnc3[nH]2)cc1 (stereo not shown) [Example 89] — within 1.5-fold, 2.5 µM
- CS(=O)(=O)c1ccc([C@@H](CC2CCCC2)c2cc3cc(C(=O)O)cnc3[nH]2)cc1 (single isomer, unassigned) [Example 56] — within 1.5-fold, 3.4 µM
- CS(=O)(=O)Nc1ccc(C(CC2CCCC2)c2cc3cccnc3[nH]2)cc1 (stereo not shown) [Example 75, N-{4-[2-Cyclopentyl-1-(1H-pyrrolo[2,3-b]pyridin-2-yl)-ethyl]-phenyl}-methanesulfonamide] — within 1.5-fold, 2.5 µM
- CS(=O)(=O)c1ccc(C(O)(CC2CCC2)c2cc3cccnc3[nH]2)cc1 (stereo not shown) [Example 115, 2-Cyclobutyl-1-(4-methanesulfonyl-phenyl)-1-(1H-pyrrolo[2,3-]pyridin-2-yl)-ethanol] — 3.2-fold higher, 7.4 µM
- c1cncc(C(CC2CCCC2)c2cc3cccnc3[nH]2)c1 (stereo not shown) [Example 110, 2-(2-Cyclopentyl-1-pyridin-3-yl-ethyl)-1H-pyrrolo[2,3-b]pyridine] — 6.1-fold higher, 14.1 µM
- CC(C)c1ccc(C(CC2CCCC2)c2cc3cc(F)cnc3[nH]2)cc1 (stereo not shown) [Example 121, 2-[2-Cyclopentyl-1-(4-isopropyl-phenyl)-ethyl]-5-fluoro-1H-pyrrolo[2,3-b]pyridine] — 5-fold lower, 0.458 µM
- COc1cnc2[nH]c(C(O)(CC3CCC3)c3ccc(S(C)(=O)=O)c(C(F)(F)F)c3)cc2c1 (stereo not shown) [Example 72, 2-Cyclobutyl-1-(4-methanesulfonyl-3-trifluoromethyl-phenyl)-1-(5-methoxy-1H-pyrrolo[2,3-b]pyridin-2-yl)-ethanol] — 5.8-fold higher, 13.3 µM
- CCOC(CC1CCCC1)(c1ccc(S(C)(=O)=O)cc1)c1cc2cccnc2[nH]1 (single isomer, unassigned) [Example 87, 2-[2-Cyclopentyl-1-ethoxy-1-(4-methanesulfonyl-phenyl)-ethyl]-1H-pyrrolo[2,3-b]pyridine] — 4.8-fold higher, 11.0 µM
- CS(=O)(=O)c1ccc(C(CC2CCOCC2)c2cc3cc(F)cnc3[nH]2)cc1 (stereo not shown) [Example 123, 5-Fluoro-2-[1-(4-methanesulfonyl-phenyl)-2-(tetrahydro-pyran-4-yl)-ethyl]-1H-pyrrolo[2,3-b]pyridine] — 4.9-fold lower, 0.47 µM
- COCCOc1cnc2[nH]c(C(CC3CCCC3)c3ccc(S(C)(=O)=O)cc3)cc2c1 (stereo not shown) [Example 15, 2-[2-Cyclopentyl-1-(4-methanesulfonyl-phenyl)-ethyl]-5-(2-methoxy-ethoxy)-1H-pyrrolo[2,3-b]pyridine] — 5.1-fold lower, 0.451 µM
- COc1ccc2cc(C(CC3CCCC3)c3ccc(S(C)(=O)=O)cc3)[nH]c2n1 (stereo not shown) [Example 113, 2-[2-Cyclopentyl-1-(4-methanesulfonyl-phenyl)-ethyl]-6-methoxy-1H-pyrrolo[2,3-b]pyridine] — within 1.5-fold, 1.8 µM
- CC(C)(O)c1ccc([C@@H](CC2CCOCC2)c2cc3cc(F)cnc3[nH]2)cc1F (single isomer, unassigned) [Example 98] — 3.4-fold lower, 0.67 µM
- CCOCCS(=O)(=O)c1ccc(C(CC2CCCC2)c2cc3cccnc3[nH]2)cc1 (stereo not shown) [Example 90, 2-{2-Cyclopentyl-1-[4-(2-ethoxy-ethanesulfonyl)-phenyl]-ethyl}-1H-pyrrolo[2,3-b]pyridine] — 3.2-fold lower, 0.73 µM
- CC(C)C[C@H](c1ccc(C(C)(C)O)c(F)c1)c1cc2cc(F)cnc2[nH]1 (single isomer, unassigned) [Example 106] — 12-fold lower, 0.189 µM
- COc1cnc2[nH]c(C(CC3CCCC3)c3ccc(S(C)(=O)=O)cc3)cc2c1 (stereo not shown) [Example 12, 2-[2-Cyclopentyl-1-(4-methanesulfonyl-phenyl)-ethyl]-5-methoxy-1H-pyrrolo[2,3-b]pyridine] — 13-fold lower, 0.18 µM
- CN(C)CCS(=O)(=O)c1ccc(C(CC2CCCC2)c2cc3cccnc3[nH]2)cc1 (stereo not shown) [Example 92, (2-{4-[2-Cyclopentyl-1-(1H-pyrrolo[2,3-b]pyridin-2-yl)-ethyl]-benzenesulfonyl}-ethyl)-dimethyl-amine] — 2.1-fold lower, 1.1 µM
- CS(=O)(=O)c1ccc(C(CC2CCCC2)c2cc3cc(OCCO)cnc3[nH]2)cc1 (stereo not shown) [Example 30, 2-{2-[2-Cyclopentyl-1-(4-methanesulfonyl-phenyl)-ethyl]-1H-pyrrolo[2,3-b]pyridin-5-yloxy}-ethanol] — 2.9-fold lower, 0.8 µM
- CS(=O)(=O)c1ccc(C(CC2CCC2)c2cc3cccnc3[nH]2)cc1C(F)(F)F (stereo not shown) [Example 77, 2-[2-Cyclobutyl-1-(4-methanesulfonyl-3-trifluoromethyl-phenyl)-ethyl]-1H-pyrrolo[2,3-b]pyridine] — 3.3-fold lower, 0.692 µM
- CC(C)(O)c1ccc(C(CC2CCCC2)c2cc3cccnc3[nH]2)c(F)c1 (stereo not shown) [Example 94, 2-{4-[2-Cyclopentyl-1-(1H-pyrrolo[2,3-b]pyridin-2-yl)-ethyl]-3-fluoro-phenyl}-propan-2-ol] — the same, 2.3 µM
- CC(C)(O)c1ccc(C(CC2CCOCC2)c2cc3cc(F)cnc3[nH]2)cc1F (stereo not shown) [Example 97, 2-{2-Fluoro-4-[1-(5-fluoro-1H-pyrrolo[2,3-b]pyridin-2-yl)-2-(tetrahydro-pyran-4-yl)-ethyl]-phenyl}-propan-2-ol] — within 1.5-fold, 2.2 µM
- CC(C)CC(c1cccc(-n2cccn2)c1)c1cc2cccnc2[nH]1 (stereo not shown) [Example 137, 2-(1-(3-(1H-Pyrazol-1-yl)phenyl)-3-methylbutyl)-1H-pyrrolo[2,3-b]pyridine] — 6.6-fold higher, 15.2 µM
- c1cnc2[nH]c(C(CC3CCCC3)c3ccc4c(c3)OCCO4)cc2c1 (stereo not shown) [Example 62, 2-[2-Cyclopentyl-1-(2,3-dihydro-benzo[1,4]-dioxin-6-yl)-ethyl]-1H-pyrrolo[2,3-b]pyridine] — 2.6-fold higher, 6.0 µM
- CCOc1cccc(C(CC(C)C)c2cc3cccnc3[nH]2)c1 (stereo not shown) [Example 133, 2-(1-(3-Ethoxy-phenyl)-3-methyl-butyl)-1H-pyrrolo[2,3-b]pyridine] — 11-fold higher, 25.0 µM
- COc1cnc2[nH]c(C(CC3CCCO3)c3ccc(S(C)(=O)=O)cc3)cc2c1 (single isomer, unassigned) [Example 24, 2-[1-(4-Methanesulfonyl-phenyl)-2-(tetrahydro-furan-2-yl)-ethyl]-5-methoxy-1H-pyrrolo[2,3-b]pyridine] — within 1.5-fold, 2.0 µM
- CC(C)(Oc1cnc2[nH]c(C(CC3CCCC3)c3ccc(S(C)(=O)=O)cc3)cc2c1)C(=O)O (stereo not shown) [Example 27, 2-{2-[2-Cyclopentyl-1-(4-methanesulfonyl-phenyl)-ethyl]-1H-pyrrolo[2,3-b]pyridin-5-yloxy}-2-methyl-propionic acid] — 5.9-fold higher, 13.5 µM
- CS(=O)(=O)c1ccc(C(CC2CCC(=O)C2)c2cc3cccnc3[nH]2)cc1 (single isomer, unassigned) [Example 78, 3-[2-(4-Methanesulfonyl-phenyl)-2-(1H-pyrrolo[2,3-b]pyridin-2-yl)-ethyl]-cyclopentanone] — 5.2-fold higher, 11.9 µM
